In brackets after ≈: the same amount, converted by molar mass. Blank lines part the entries; values can stand above or below the molecule they belong to.
What was measured:
Test in all cases: ≥ marks a high value that may be exact or a test limit, other limits are often not marked, values filed in µg/mL are converted to µM
Escherichia coli B = tested on: Escherichia coli B
Staphylococcus aureus = tested on: Staphylococcus aureus
Pseudomonas aeruginosa = tested on: Pseudomonas aeruginosa
Bacillus subtilis 168 = tested on: Bacillus subtilis 168
[1] = tested on: Escherichia coli DH5alpha
[2] = tested on: Staphylococcus aureus ATCC 29213
Acinetobacter baumannii = tested on: Acinetobacter baumannii
[3] = tested on: Staphylococcus epidermidis ATCC 12228
[4] = tested on: Salmonella enterica subsp. enterica serovar Typhimurium C77-31
Escherichia coli = tested on: Escherichia coli
Escherichia coli UB1005 = tested on: Escherichia coli UB1005
[5] = tested on: Escherichia coli ATCC 25922
[6] = tested on: Staphylococcus aureus ATCC 25923
[7] = tested on: Candida albicans ATCC 90028
[8] = tested on: Staphylococcus aureus NCTC 8325
Escherichia coli JW0013 = tested on: Escherichia coli JW0013

Structure (SMILES): C[C@@H](O)[C@H](NC(=O)[C@H](CCCN=C(N)N)NC(=O)[C@H](Cc1c[nH]c2ccccc12)NC(=O)[C@H](CCCN=C(N)N)NC(=O)[C@@H](NC(=O)[C@H](CCCN=C(N)N)NC(=O)[C@H](Cc1c[nH]c2ccccc12)NC(=O)[C@H](CCCN=C(N)N)NC(=O)[C@@H](NC(=O)[C@H](CCCN=C(N)N)NC(=O)[C@@H](N)Cc1c[nH]c2ccccc12)[C@@H](C)O)[C@@H](C)O)C(=O)N[C@@H](CCCN=C(N)N)C(N)=O [WRTRWRTRWRTR]
- MIC [2]: 4 µM (≈ 7.26 µg/mL)
- MIC (Acinetobacter baumannii): ≥ 32 µM
- MIC (Staphylococcus aureus): 4 µM (≈ 7.26 µg/mL)
- MIC (Pseudomonas aeruginosa): > 64 µM
- MIC [3]: 8 µM (≈ 14.5 µg/mL)
- MIC [4]: 4 µM (≈ 7.26 µg/mL)
- MIC (Escherichia coli): 2 µM (≈ 3.63 µg/mL)
- MIC (Escherichia coli UB1005): 4 µM (≈ 7.26 µg/mL)
- MIC [5]: 4 µM (≈ 7.26 µg/mL)
- MIC [6]: 8 µM (≈ 14.5 µg/mL)

Structure (SMILES): CC[C@H](C)[C@@H]1NC(=O)[C@@H](NC(=O)[C@H](CCCCN)NC(=O)[C@H](CC(C)C)NC(=O)CNC(=O)[C@H](CCC(N)=O)NC(=O)[C@H](CC(C)C)NC(=O)[C@H](CC(C)C)NC(=O)[C@H](CCCCN)NC(=O)CNC(=O)[C@H](C)NC(=O)[C@H](CC(C)C)NC(=O)CNC(=O)[C@H](CCCCN)NC(=O)[C@H](CC(C)C)NC(=O)[C@@H](NC(=O)[C@H](CC(=O)O)NC(=O)[C@H](CC(C)C)NC(=O)[C@H](Cc2ccccc2)NC(=O)[C@H](CC(C)C)NC(=O)CN)[C@@H](C)O)CSSC[C@@H](C(=O)N[C@@H](CCCCN)C(=O)N2CCC[C@H]2C(=O)O)NC(=O)CNC(=O)[C@H](C)NC(=O)[C@H](CCCCN)NC1=O [GLFLDTLKGLAGKLLQGLKCIKAGCKP]
- MIC [7]: ≥ 46 µM
- MIC [8]: ≥ 40 µM
- MIC [5]: 2 µM (≈ 5.57 µg/mL)

Structure (SMILES): CC[C@H](C)[C@H](NC(=O)[C@H](CCCCN)NC(=O)CNC(=O)[C@H](CC(C)C)NC(=O)[C@@H](NC(=O)[C@H](CCCCN)NC(=O)[C@H](CCCCN)NC(=O)[C@H](Cc1c[nH]c2ccccc12)NC(=O)[C@H](CC(N)=O)NC(=O)[C@@H](N)C(C)C)[C@@H](C)CC)C(N)=O [VNWKKILGKI]
- MIC (Escherichia coli B): 23.3 µM (≈ 27.9 µg/mL)
- MIC (Staphylococcus aureus): > 100 µM
- MIC (Pseudomonas aeruginosa): 75 µM (≈ 89.8 µg/mL)
- MIC (Bacillus subtilis 168): 4.7 µM (≈ 5.63 µg/mL)

Structure (SMILES): CC(C)C[C@H](NC(=O)[C@@H](NC(=O)[C@H](CCCCN)NC(=O)[C@H](CO)NC(=O)[C@H](CC(C)C)NC(=O)[C@H](CC(C)C)NC(=O)[C@@H](NC(=O)[C@H](C)NC(=O)[C@H](CC(C)C)NC(=O)[C@H](Cc1ccccc1)NC(=O)[C@@H]1CCCN1C(=O)[C@H](CC(C)C)NC(=O)[C@@H](N)Cc1ccccc1)[C@@H](C)O)C(C)C)C(N)=O [FLPFLATLLSKVL]
- MIC [8]: ≥ 100 µM

Structure (SMILES): CC[C@H](C)[C@H](NC(=O)CNC(=O)[C@H](C)NC(=O)[C@@H](NC(=O)[C@@H](NC(=O)[C@@H]1CCCN1C(=O)[C@H](CC(C)C)NC(=O)[C@@H](N)Cc1ccccc1)[C@@H](C)CC)[C@@H](C)CC)C(=O)N[C@@H](C)C(=O)N[C@@H](C)C(=O)N[C@@H](CCCCN)C(=O)N[C@H](C(=O)N[C@@H](Cc1ccccc1)C(=O)N1CCC[C@H]1C(=O)N[C@@H](CCCCN)C(=O)N[C@H](C(=O)N[C@@H](Cc1ccccc1)C(=O)N[C@H]1CSSC[C@@H](C(=O)O)NC(=O)[C@H](CCCCN)NC(=O)[C@H](CCCCN)NC(=O)[C@H](CO)NC(=O)[C@H]([C@@H](C)CC)NC(=O)[C@H](C)NC1=O)[C@@H](C)CC)C(C)C [FLPIIAGIAAKVFPKIFCAISKKC]
- MIC [7]: 7 µM (≈ 18 µg/mL)
- MIC [8]: 5 µM (≈ 12.9 µg/mL)
- MIC [5]: 14 µM (≈ 36.1 µg/mL)

Structure (SMILES): CC[C@H](C)[C@H](NC(=O)[C@H](CCCN=C(N)N)NC(=O)[C@H](CCCN=C(N)N)NC(=O)[C@@H]1CCCN1C(=O)[C@@H]1CCCN1C(=O)[C@H](CCCN=C(N)N)NC(=O)[C@@H]1CCCN1C(=O)[C@H](CCCN=C(N)N)NC(=O)[C@@H]1CCCN1C(=O)[C@H](CC(C)C)NC(=O)[C@H](Cc1ccc(O)cc1)NC(=O)[C@@H]1CCCN1C(=O)[C@H](Cc1cnc[nH]1)NC(=O)[C@H](CCCCN)NC(=O)[C@H](CC(=O)O)NC(=O)[C@@H](N)C(C)C)C(=O)N[C@@H](Cc1ccc(O)cc1)C(=O)N[C@@H](CC(N)=O)C(=O)N[C@@H](CCCN=C(N)N)C(N)=O [VDKHPYLPRPRPPRRIYNR]
- MIC (Escherichia coli JW0013): 1.97 µM (≈ 4.8 µg/mL)

Structure (SMILES): CC[C@H](C)[C@H](NC(=O)CNC(=O)[C@H](CCC(N)=O)NC(=O)[C@H](Cc1ccccc1)NC(=O)[C@@H](NC(=O)[C@H](CCCCN)NC(=O)[C@H](CCCCN)NC(=O)[C@H](CC(C)C)NC(=O)[C@H](C)NC(=O)[C@H](CC(N)=O)NC(=O)[C@H](CC(C)C)NC(=O)CN)C(C)C)C(=O)N[C@@H](Cc1cnc[nH]1)C(=O)N[C@@H](CCC(=O)O)C(=O)N[C@@H](C)C(=O)N[C@H](C(=O)N[C@@H](CCCCN)C(=O)N[C@@H](CC(C)C)C(=O)N[C@H](C(=O)N[C@@H](CC(N)=O)C(=O)N[C@@H](CCCCN)C(=O)N[C@@H](Cc1cnc[nH]1)C(=O)N[C@H](C(=O)N[C@@H](CCC(N)=O)C(=O)O)C(C)C)[C@@H](C)CC)[C@@H](C)CC [GLNALKKVFQGIHEAIKLINKHVQ]
- MIC [8]: ≥ 80 µM
- MIC [5]: 20 µM (≈ 54 µg/mL)

The next lines start with the values.

- MIC (Escherichia coli B): 2.2 µM (≈ 3.31 µg/mL)
- MIC (Staphylococcus aureus): 12.5 µM (≈ 18.8 µg/mL)
- MIC (Pseudomonas aeruginosa): 46.7 µM (≈ 70.2 µg/mL)
- MIC (Bacillus subtilis 168): 1.1 µM (≈ 1.65 µg/mL)
Structure (SMILES): CC[C@H](C)[C@H](NC(=O)[C@H](Cc1cnc[nH]1)NC(=O)[C@H](CCCCN)NC(=O)[C@H](CC(C)C)NC(=O)[C@H](CC(C)C)NC(=O)[C@H](Cc1cnc[nH]1)NC(=O)[C@H](CCSC)NC(=O)[C@H](Cc1c[nH]c2ccccc12)NC(=O)[C@H](CCCCN)NC(=O)CN)C(=O)N[C@@H](CC(C)C)C(=O)N[C@@H](CCCCN)C(N)=O [GKWMHLLKHILK]

- MIC (Bacillus subtilis 168): 2 µM (≈ 3.27 µg/mL)
- MIC [1]: 6 µM (≈ 9.81 µg/mL)
Structure (SMILES): CC(C)C[C@H](NC(=O)[C@H](CCCCN)NC(=O)[C@H](CCCCN)NC(=O)[C@H](CC(C)C)NC(=O)[C@H](CC(C)C)NC(=O)[C@H](CCCCN)NC(=O)[C@H](CCCCN)NC(=O)[C@H](CC(C)C)NC(=O)[C@H](CC(C)C)NC(=O)[C@H](CCCCN)NC(=O)[C@H](CCCCN)NC(=O)[C@H](CC(C)C)NC(=O)[C@H](CC(C)C)NC(=O)CN)C(N)=O [GLLKKLLKKLLKKL]

- MIC (Escherichia coli B): 5.8 µM (≈ 8.2 µg/mL)
- MIC (Staphylococcus aureus): 43.3 µM (≈ 61.2 µg/mL)
- MIC (Pseudomonas aeruginosa): 30 µM (≈ 42.4 µg/mL)
- MIC (Bacillus subtilis 168): 1.5 µM (≈ 2.12 µg/mL)
Structure (SMILES): CC[C@H](C)[C@H](NC(=O)[C@H](Cc1cnc[nH]1)NC(=O)[C@H](CCCCN)NC(=O)[C@H](CC(C)C)NC(=O)[C@H](CC(C)C)NC(=O)[C@H](CO)NC(=O)[C@H](CCSC)NC(=O)[C@H](Cc1ccccc1)NC(=O)[C@H](CCCCN)NC(=O)CN)C(=O)N[C@@H](CC(C)C)C(=O)N[C@@H](CCCCN)C(N)=O [GKFMSLLKHILK]

- MIC (Escherichia coli B): 0.7 µM (≈ 1.29 µg/mL)
- MIC (Staphylococcus aureus): 9.6 µM (≈ 17.6 µg/mL)
- MIC (Pseudomonas aeruginosa): 26.1 µM (≈ 47.9 µg/mL)
- MIC (Bacillus subtilis 168): 0.7 µM (≈ 1.29 µg/mL)
Structure (SMILES): CC[C@H](C)[C@H](NC(=O)[C@H](CCCCN)NC(=O)[C@H](CCCCN)NC(=O)[C@H](Cc1c[nH]c2ccccc12)NC(=O)[C@H](CC(N)=O)NC(=O)[C@@H](N)C(C)C)C(=O)N[C@@H](CC(C)C)C(=O)N[C@@H](CCCCN)C(=O)N[C@@H](CCCCN)C(=O)N[C@H](C(=O)N[C@H](C(=O)N[C@@H](CCCCN)C(=O)N[C@H](C(=O)N[C@H](C(=O)N[C@@H](CCCCN)C(N)=O)C(C)C)C(C)C)[C@@H](C)CC)[C@@H](C)CC [VNWKKILKKIIKVVK]

- MIC [2]: > 128 µM
- MIC [3]: > 128 µM
- MIC [4]: ≥ 128 µM
- MIC (Escherichia coli UB1005): ≥ 64 µM
- MIC [5]: > 128 µM
- MIC [6]: > 128 µM
Structure (SMILES): CC(C)C[C@H](NC(=O)[C@H](CCCN=C(N)N)NC(=O)[C@H](CCCCN)NC(=O)[C@H](CCCN=C(N)N)NC(=O)[C@@H](NC(=O)[C@H](CCCCN)NC(=O)[C@H](CCCCN)NC(=O)[C@H](CCCN=C(N)N)NC(=O)[C@H](CC(C)C)NC(=O)[C@H](CCCN=C(N)N)NC(=O)[C@@H](N)CCCN=C(N)N)[C@@H](C)O)C(=O)N[C@@H](CCCCN)C(N)=O [RRLRKKTRKRLK]

- MIC [2]: 1 µM (≈ 1.64 µg/mL)
- MIC (Acinetobacter baumannii): 1.41 µM (≈ 2.32 µg/mL)
- MIC (Staphylococcus aureus): 2 µM (≈ 3.28 µg/mL)
- MIC (Pseudomonas aeruginosa): 4 µM (≈ 6.57 µg/mL)
- MIC [3]: 2 µM (≈ 3.28 µg/mL)
- MIC [4]: 2 µM (≈ 3.28 µg/mL)
- MIC (Escherichia coli): 1 µM (≈ 1.64 µg/mL)
- MIC (Escherichia coli UB1005): 2 µM (≈ 3.28 µg/mL)
- MIC [5]: 2 µM (≈ 3.28 µg/mL)
- MIC [6]: 2 µM (≈ 3.28 µg/mL)
Structure (SMILES): CC(C)[C@H](NC(=O)[C@H](CCCCN)NC(=O)[C@H](Cc1c[nH]c2ccccc12)NC(=O)[C@H](CCCCN)NC(=O)[C@@H](NC(=O)[C@H](CCCCN)NC(=O)[C@H](Cc1c[nH]c2ccccc12)NC(=O)[C@H](CCCCN)NC(=O)[C@@H](NC(=O)[C@H](CCCCN)NC(=O)[C@@H](N)Cc1c[nH]c2ccccc12)C(C)C)C(C)C)C(=O)N[C@@H](CCCCN)C(N)=O [WKVKWKVKWKVK]

- MIC [2]: 16 µM (≈ 24.4 µg/mL)
- MIC [3]: 32 µM (≈ 48.7 µg/mL)
- MIC [4]: 16 µM (≈ 24.4 µg/mL)
- MIC (Escherichia coli UB1005): 4 µM (≈ 6.09 µg/mL)
- MIC [5]: 4 µM (≈ 6.09 µg/mL)
- MIC [6]: 64 µM (≈ 97.5 µg/mL)
Structure (SMILES): CC(C)C[C@H](NC(=O)[C@H](CCCN=C(N)N)NC(=O)[C@@H](NC(=O)[C@H](CCCN=C(N)N)NC(=O)[C@@H](NC(=O)[C@H](CCCCN)NC(=O)[C@@H](NC(=O)[C@H](CCCN=C(N)N)NC(=O)[C@H](CC(C)C)NC(=O)[C@H](CCCN=C(N)N)NC(=O)[C@@H](N)C(C)C)C(C)C)[C@@H](C)O)C(C)C)C(=O)N[C@@H](CCCCN)C(N)=O [VRLRVKTRVRLK]
